According to PubChem BioAssay AID2060511 (Molecular Pharmacology Branch, DTP, NCI, 2025):

Tested on: 422866-222-R5-J1-PDC spheroids with HUVEC/MSC, viability
Test: Anticancer human tumor 422866-222-R5-J1-PDC patient-derived pancreatic adenocarcinoma cell line growth inhibition [GQUAD]
Conditions: for IC50: curve of first compound; for viability, T/C: stronger effect = lower value
Outline: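 Tumor cells were grown as complex spheroids with HUVEC endothelial cells and mesenchymal stem cells as stroma. G-quadruplex stabilizers were combined with targeted agents over half-log dilutions from near the clinical Cmax, or from 10 microM.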

[1] = second compound 0.0316 µM, first compound 0.0316 µM
[2] = second compound 0.0316 µM, first compound 0.1 µM
[3] = second compound 0.0316 µM, first compound 0.316 µM
[4] = second compound 0.0316 µM, first compound 1 µM
[5] = second compound 0.0316 µM, first compound 3.16 µM
[6] = second compound 0.0316 µM, first compound 10 µM
[7] = second compound 0.1 µM, first compound 0.0316 µM
[8] = second compound 0.1 µM, first compound 0.1 µM
[9] = second compound 0.1 µM, first compound 0.316 µM
[10] = second compound 0.1 µM, first compound 1 µM
[11] = second compound 0.1 µM, first compound 3.16 µM
[12] = second compound 0.1 µM, first compound 10 µM
[13] = second compound 0.316 µM, first compound 0.0316 µM
[14] = second compound 0.316 µM, first compound 0.1 µM
[15] = second compound 0.316 µM, first compound 0.316 µM
[16] = second compound 0.316 µM, first compound 1 µM
[17] = second compound 0.316 µM, first compound 3.16 µM
[18] = second compound 0.316 µM, first compound 10 µM
[19] = second compound 1 µM, first compound 0.0316 µM
[20] = second compound 1 µM, first compound 0.1 µM
[21] = second compound 1 µM, first compound 0.316 µM
[22] = second compound 1 µM, first compound 1 µM
[23] = second compound 1 µM, first compound 3.16 µM
[24] = second compound 1 µM, first compound 10 µM
[25] = second compound 3.16 µM, first compound 0.0316 µM
[26] = second compound 3.16 µM, first compound 0.1 µM
[27] = second compound 3.16 µM, first compound 0.316 µM
[28] = second compound 3.16 µM, first compound 1 µM
[29] = second compound 3.16 µM, first compound 3.16 µM
[30] = second compound 3.16 µM, first compound 10 µM
[31] = second compound 10 µM, first compound 0.0316 µM
[32] = second compound 10 µM, first compound 0.1 µM
[33] = second compound 10 µM, first compound 0.316 µM
[34] = second compound 10 µM, first compound 1 µM
[35] = second compound 10 µM, first compound 3.16 µM
[36] = second compound 10 µM, first compound 10 µM
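Note: spheroids exposed to compounds for seven days before reading.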
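Throughout, for viability, T/C: percent viability relative to DMSO vehicle control taken as 100%.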

Compound O=C(NO)c1cnc(N2CCN(S(=O)(=O)c3ccc4ccccc4c3)CC2)nc1 + Cc1[nH]c2ccc(F)cc2c1-c1nc2c3cccnc3c3ncccc3c2[nH]1 has an IC50 (second compound 0.0316 µM) of over 10 µM, an IC50 (second compound 0.1 µM) of over 10 µM and an IC50 (second compound 0.316 µM) of over 10 µM. For the same compound, the IC50 (second compound 1 µM) was over 10 µM, the IC50 (second compound 3.16 µM) was over 10 µM and the IC50 (second compound 10 µM) was over 10 µM. For the same compound, the viability, T/C [1] was 78.6%, the viability, T/C [2] was 69.2% and the viability, T/C [3] was 64.7%. For the same compound, the viability, T/C [4] was 68.1%, the viability, T/C [5] was 71.6% and the viability, T/C [6] was 75.4%. The viability, T/C [7] was 81.1%, the viability, T/C [8] was 68.3% and the viability, T/C [9] was 56.4%. The viability, T/C [10] was 61%, the viability, T/C [11] was 74.2% and the viability, T/C [12] was 72.3%. For the same compound, the viability, T/C [13] was 77.5%, the viability, T/C [14] was 68% and the viability, T/C [15] was 71.4%. For the same compound, the viability, T/C [16] was 61.7%, the viability, T/C [17] was 63.2% and the viability, T/C [18] was 78.1%. The viability, T/C [19] was 64.4%, the viability, T/C [20] was 61.6% and the viability, T/C [21] was 62.6%. The viability, T/C [22] was 61.2%, the viability, T/C [23] was 75% and the viability, T/C [24] was 70%. For the same compound, the viability, T/C [25] was 56%, the viability, T/C [26] was 56.6% and the viability, T/C [27] was 51.6%. It also gave a viability, T/C [28] of 63.3%, a viability, T/C [29] of 67.8% and a viability, T/C [30] of 66%. It also gave a viability, T/C [31] of 60.1%, a viability, T/C [32] of 47.8% and a viability, T/C [33] of 59.5%. It also gave a viability, T/C [34] of 57%, a viability, T/C [35] of 51% and a viability, T/C [36] of 64.4%.
CC(C)(O)C1CCC(Nc2ccc3ncc(-c4cccc(C(F)(F)F)c4)n3n2)CC1 (stereo not given) + Cc1cnc(CNC(=O)c2c(=O)c3ccc(N4CCCN(C)CC4)nc3n3c2sc2ccccc23)cn1 was tested, and the IC50 (second compound 0.0316 µM) was 1.44 µM, the IC50 (second compound 0.1 µM) was over 10 µM and the IC50 (second compound 0.316 µM) was over 10 µM. It also gave an IC50 (second compound 1 µM) of over 10 µM, an IC50 (second compound 3.16 µM) of over 10 µM and an IC50 (second compound 10 µM) of 1.81 µM. For the same compound, the viability, T/C [1] was 102%, the viability, T/C [2] was 80.6% and the viability, T/C [3] was 97.1%. For the same compound, the viability, T/C [4] was 51.4%, the viability, T/C [5] was 42% and the viability, T/C [6] was 51.8%. For the same compound, the viability, T/C [7] was 91.4%, the viability, T/C [8] was 76.3% and the viability, T/C [9] was 81.2%. The viability, T/C [10] was 66.5%, the viability, T/C [11] was 58.8% and the viability, T/C [12] was 63.7%. For the same compound, the viability, T/C [13] was 86.8%, the viability, T/C [14] was 83.9% and the viability, T/C [15] was 75.1%. The viability, T/C [16] was 78.6%, the viability, T/C [17] was 76.3% and the viability, T/C [18] was 75.5%. For the same compound, the viability, T/C [19] was 74.6%, the viability, T/C [20] was 88.7% and the viability, T/C [21] was 79.4%. For the same compound, the viability, T/C [22] was 75.6%, the viability, T/C [23] was 82.3% and the viability, T/C [24] was 75.4%. It also gave a viability, T/C [25] of 71.1%, a viability, T/C [26] of 101% and a viability, T/C [27] of 76%. The viability, T/C [28] was 72.8%, the viability, T/C [29] was 68.5% and the viability, T/C [30] was 54.1%. The viability, T/C [31] was 83%, the viability, T/C [32] was 67.8% and the viability, T/C [33] was 83.2%. It also gave a viability, T/C [34] of 75.5%, a viability, T/C [35] of 25.9% and a viability, T/C [36] of 0.79%.
COc1cccc2c1C(=O)c1c(O)c3c(c(O)c1C2=O)CC(O)(C(=O)CO)CC3OC1CC(N)C(O)C(C)O1 (stereo not given) + CN(C)c1ccc(Nc2c3ccc(NC(=O)CCN4CCCC4)cc3nc3cc(NC(=O)CCN4CCCC4)ccc23)cc1 was tested, and the IC50 (second compound 0.0316 µM) was 0.596 µM, the IC50 (second compound 0.1 µM) was 0.613 µM and the IC50 (second compound 0.316 µM) was 0.9 µM. The IC50 (second compound 1 µM) was 0.76 µM, the IC50 (second compound 3.16 µM) was 0.562 µM and the IC50 (second compound 10 µM) was 1 µM. The viability, T/C [1] was 95.2%, the viability, T/C [2] was 66.8% and the viability, T/C [3] was 64.3%. It also gave a viability, T/C [4] of 42.9%, a viability, T/C [5] of 32% and a viability, T/C [6] of 32.3%. The viability, T/C [7] was 103%, the viability, T/C [8] was 73% and the viability, T/C [9] was 56.8%. It also gave a viability, T/C [10] of 48.8%, a viability, T/C [11] of 33.9% and a viability, T/C [12] of 37.9%. The viability, T/C [13] was 89.5%, the viability, T/C [14] was 66.3% and the viability, T/C [15] was 65.7%. The viability, T/C [16] was 48.3%, the viability, T/C [17] was 37.8% and the viability, T/C [18] was 37.5%. The viability, T/C [19] was 72.2%, the viability, T/C [20] was 59.5% and the viability, T/C [21] was 55.5%. For the same compound, the viability, T/C [22] was 51%, the viability, T/C [23] was 40.4% and the viability, T/C [24] was 33%. The viability, T/C [25] was 74.3%, the viability, T/C [26] was 68.5% and the viability, T/C [27] was 56%. For the same compound, the viability, T/C [28] was 44.8%, the viability, T/C [29] was 35.1% and the viability, T/C [30] was 36.5%. The viability, T/C [31] was 93%, the viability, T/C [32] was 69.4% and the viability, T/C [33] was 65.9%. It also gave a viability, T/C [34] of 48.1%, a viability, T/C [35] of 41.1% and a viability, T/C [36] of 33%.
With O=C(NO)c1cnc(N2CCN(S(=O)(=O)c3ccc4ccccc4c3)CC2)nc1 + CN(C)c1ccc(Nc2c3ccc(NC(=O)CCN4CCCC4)cc3nc3cc(NC(=O)CCN4CCCC4)ccc23)cc1 the IC50 (second compound 0.0316 µM) was 0.792 µM, the IC50 (second compound 0.1 µM) was 0.944 µM and the IC50 (second compound 0.316 µM) was 0.838 µM. For the same compound, the IC50 (second compound 1 µM) was 0.856 µM, the IC50 (second compound 3.16 µM) was 0.566 µM and the IC50 (second compound 10 µM) was 1.11 µM. The viability, T/C [1] was 93.7%, the viability, T/C [2] was 115% and the viability, T/C [3] was 79.9%. The viability, T/C [4] was 37.4%, the viability, T/C [5] was 29.4% and the viability, T/C [6] was 1.05%. It also gave a viability, T/C [7] of 100%, a viability, T/C [8] of 101% and a viability, T/C [9] of 89.8%. It also gave a viability, T/C [10] of 38.5%, a viability, T/C [11] of 32.1% and a viability, T/C [12] of 1.23%. The viability, T/C [13] was 98%, the viability, T/C [14] was 111% and the viability, T/C [15] was 67.4%. For the same compound, the viability, T/C [16] was 37.4%, the viability, T/C [17] was 37.1% and the viability, T/C [18] was 1.09%. The viability, T/C [19] was 92.5%, the viability, T/C [20] was 92.9% and the viability, T/C [21] was 66.8%. The viability, T/C [22] was 38.1%, the viability, T/C [23] was 34% and the viability, T/C [24] was 1.34%. The viability, T/C [25] was 87.6%, the viability, T/C [26] was 94.6% and the viability, T/C [27] was 54.5%. It also gave a viability, T/C [28] of 30.7%, a viability, T/C [29] of 36.1% and a viability, T/C [30] of 1.79%. It also gave a viability, T/C [31] of 89.6%, a viability, T/C [32] of 88.2% and a viability, T/C [33] of 72.2%. For the same compound, the viability, T/C [34] was 38.4%, the viability, T/C [35] was 41.3% and the viability, T/C [36] was 1.96%.
Work on CC(C)(O)C1CCC(Nc2ccc3ncc(-c4cccc(C(F)(F)F)c4)n3n2)CC1 (stereo not given) + Cc1[nH]c2ccc(F)cc2c1-c1nc2c3cccnc3c3ncccc3c2[nH]1 yielded an IC50 (second compound 0.0316 µM) of 1.11 µM, an IC50 (second compound 0.1 µM) of 0.833 µM and an IC50 (second compound 0.316 µM) of 1.12 µM. It also gave an IC50 (second compound 1 µM) of 1.49 µM, an IC50 (second compound 3.16 µM) of 0.421 µM and an IC50 (second compound 10 µM) of 0.531 µM. For the same compound, the viability, T/C [1] was 99.4%, the viability, T/C [2] was 79.8% and the viability, T/C [3] was 78.5%. The viability, T/C [4] was 50.7%, the viability, T/C [5] was 31.8% and the viability, T/C [6] was 26.9%. The viability, T/C [7] was 118%, the viability, T/C [8] was 103% and the viability, T/C [9] was 64.7%. It also gave a viability, T/C [10] of 50.9%, a viability, T/C [11] of 34.1% and a viability, T/C [12] of 29.8%. For the same compound, the viability, T/C [13] was 103%, the viability, T/C [14] was 99.2% and the viability, T/C [15] was 80.3%. The viability, T/C [16] was 51.1%, the viability, T/C [17] was 36.5% and the viability, T/C [18] was 29.5%. For the same compound, the viability, T/C [19] was 87.1%, the viability, T/C [20] was 88.4% and the viability, T/C [21] was 77.6%. It also gave a viability, T/C [22] of 55.4%, a viability, T/C [23] of 38.9% and a viability, T/C [24] of 27.1%. The viability, T/C [25] was 56%, the viability, T/C [26] was 63.5% and the viability, T/C [27] was 52.4%. The viability, T/C [28] was 39.3%, the viability, T/C [29] was 37.8% and the viability, T/C [30] was 29%. It also gave a viability, T/C [31] of 66.3%, a viability, T/C [32] of 68.3% and a viability, T/C [33] of 62%. For the same compound, the viability, T/C [34] was 35.1%, the viability, T/C [35] was 33.9% and the viability, T/C [36] was 26%.
